What was measured:
[1] = molecular target: membrane pannexin-1 channels (Homo sapiens, UniProt Q96RD7); conditions: described in literature; cited from earlier work
[2] = tested on: Salmonella; assay type: cell-based, Salmonella enterica serovar Typhimurium
Procedure: Full length colons (from cecum to rectum) were excised from the indicated genotype of mice and cut open longitudinally to flay the colon open. Opened colons were vortexed 2-3 times in sterile 1× PBS to remove fecal content. Colons were then cut horizontally into 5-7 mm long pieces and incubated in DMEM +10% FBS and an antibiotic cocktail containing Ampicillin (100 μg/ml), Chloramphenicol (20 μg/ml), Kanamycin (50 μg/ml), and Streptomycin (100 μg/ml) for 2 hours at 37° C. with 5% CO2. Colonic pieces were then washed 3 times in sterile 1× PBS to remove any traces of the antibiotic cocktail. Individual colonic pieces were then incubated in 1.5 ml Eppendorf tubes containing 500 μl of DMEM+10% FBS+/−2 μM Stauro for 8 hours or +/−20 μg/ml Doxorubicin for 6 hours. For caspase inhibition, 30 μM QVD was added to the 2-hour antibiotic treatment step and was maintained throughout death induction. After death induction, colonic explants were spun at max speed for 5 minutes using a tabletop centrifuge and supernatant was collected. Unfiltered supernatant was used immediately or frozen −20° C. for subsequent use. […] All subsequent experiments (cell death, bacterial growth) utilized explants extracted from a minimum of 3 mice.
(§1) CFU/ml values: 500 μl of supernatant or media controls were inoculated with 1×10^3 CFU of the indicated strain. Cultures were grown at 37° C. with 200 rpm agitation (aerobic) and growth was assessed at the indicated time by serially diluting with 1× PBS and plating onto LB agar (in vitro supernatants) or MacConkey agar (ex vivo primary colonocyte supernatants) to obtain CFU/ml values.

[3] = tested on: CT26:FADD cells; assay: CT26:FADD cell death (flow cytometry); assay type: cell-based, murine
Procedure: (§2) All mammalian cells were cultured at 5×10^5 cells per ml. Cells were washed with 1× PBS before induction of cell death in the indicated medium. Jurkat cells were cultured in suspension at 5×10^5 cells/ml. After induction of cell death, supernatant was collected and spun at 330 rcf for 5 minutes to remove cellular debris. Unless stated otherwise, the resulting supernatant was filtered using a 0.2 μm syringe filter and either used immediately or frozen at −20° C. for later use. Cells were stained with Annexin V (AV) conjugated to APC or Pac Blue and either Sytox blue, Yoyo-1, or 7AAD (DNA binding dyes) for 15 minutes at room temperature in Annexin V binding buffer (BD). Flow cytometry was performed using the Attune NxT (Invitrogen), the FACS Calibur (BD), the LSR Fortessa (BD), or the LSRII (BD). Data were analyzed using FlowJo v.10 software. All independent experiment values shown are the average values of technical duplicates. ‘% Annexin V^+’ cells include Annexin V^+DNA dye^− and Annexin V^+DNA dye^+ cell populations.
(§3) FADD-dependent apoptosis: CT26:FADD clones were incubated with 1 μg/ml doxycycline for 16 hours to induce expression of the construct. Doxycycline was washed away before addition of 10 nM B/B Homodimerizer for 5 hours to induce death. […]

[4] = tested on: Salmonella; assay: Salmonella growth in CT26 cell supernatants; assay type: cell-based, Salmonella enterica serovar Typhimurium
Procedure: as §2
as §3, with “death. For Caspase inhibition studies, cells were incubated with 30 μM QVD for 1 hour prior to B/B administration and QVD was maintained in the media.” for “death.”
OD600 measurements: 4 ml of supernatant or media controls were inoculated with 1-2×10^7 CFU/ml of the indicated bacterial species. Cultures were grown at 37° C. with 200 rpm agitation (aerobic) and bacterial growth was quantified by OD600 measurements using the Ultrospec 10 (VWR) at the indicated time points. […]
as §1

[5] = tested on: Salmonella; assay: Salmonella gene expression (qPCR) in mammalian cell supernatants; assay type: cell-based, Salmonella enterica serovar Typhimurium; conditions: apoptotic supernatants from CT26 and HCT116 cells
Procedure: For all gene expression studies, bacterial cultures were grown to mid logarithmic growth phase (OD600=0.4−0.6), spun down at max speed, and then resuspended in TRIzol™ reagent (ThermoFisher) for immediate extraction or frozen at −80° C. Bacterial RNA was extracted and DNA removed as described using the RiboPure RNA Purification Kit (Thermo Fisher). For RNAseq experiments, ribosomal RNA was removed using Ribo-zero kits (Illumina). For all RNAseq data, sample groups were analyzed in quadruplicates and reads were mapped to the Salmonella Typhimurium SL1344 reference genome (ASM21085v2, EnsEMBL 39).
qPCR: cDNA synthesis was performed using the SensiFast cDNA synthesis kit (GC Biotech). qPCR primers were designed using NCBI Primer Blast. The ΔΔCT values for each independent biological replicate were calculated twice, first using the Salmonella housekeeping gene gmk^55 and then the housekeeping gene strB^56 and the two ΔΔCT values were averaged. Relative fold expression was calculated such that the average of the indicated controls was equal to 1. The endogenous controls for HS E. coli samples were gmk and rpoA^57. All independent experiment values shown are the average values of technical duplicates.

[6] = tested on: CT26 cells; assay: Pyruvate concentration in CT26 supernatants; assay type: cell-based, murine; conditions: CT26 cells triggered with staurosporine
Procedure: Shikonin: CT26 cells were pretreated with 5 μM Shikonin (or DMSO vehicle control) for 1 hour. Cells were then washed once with PBS before replacing with fresh media containing the indicated trigger of cell death +/−5 μM Shikonin.
Metabolite detection: Pyruvate, formate, or fructose 1,6-bisphosphate concentrations were determined using the appropriate detection kit per the manufacturer's instructions. For these experiments, mammalian cells were cultured in DMEM without phenol red supplemented with 10% FBS.

[7] = tested on: C57BL/6 colonic explants; assay: Caspase-3 activation in colonic explants (colorimetric assay); assay type: cell-based, mouse; conditions: 20 μg/ml Doxo, 6 hours ex vivo
Procedure: Full length colons (from cecum to rectum) were excised from the indicated genotype of mice and cut open longitudinally to flay the colon open. Opened colons were vortexed 2-3 times in sterile 1× PBS to remove fecal content. Colons were then cut horizontally into 5-7 mm long pieces and incubated in DMEM +10% FBS and an antibiotic cocktail containing Ampicillin (100 μg/ml), Chloramphenicol (20 μg/ml), Kanamycin (50 μg/ml), and Streptomycin (100 μg/ml) for 2 hours at 37° C. with 5% CO2. Colonic pieces were then washed 3 times in sterile 1× PBS to remove any traces of the antibiotic cocktail. Individual colonic pieces were then incubated in 1.5 ml Eppendorf tubes containing 500 μl of DMEM+10% FBS+/−2 μM Stauro for 8 hours or +/−20 μg/ml Doxorubicin for 6 hours. For caspase inhibition, 30 μM QVD was added to the 2-hour antibiotic treatment step and was maintained throughout death induction. […]
Caspase-3 activation: Following removal of the supernatant, explant pieces were assessed for caspase-3 activity via the Caspase-3 Colorimetric Activity Assay Kit, DEVD (Sigma) according to the manufacturer's instructions. Colorimetric values were obtained at 405 nm using the iMark™ microplate reader (BioRad) and arbitrary units were calculated from a standard curve using the provided pNA standard.

[8] = tested on: Enterobacteriaceae; assay: Bacterial growth in media with or without Doxo; assay type: cell-based, Salmonella and E. coli (strain HS); conditions: 9 hours aerobic growth in media with or without Doxo
Procedure: as §1

[9] = Doxorubicin-induced gastrointestinal toxicity in mice; assay type: in vivo
Procedure: (§4) Doxorubicin treatment. Doxorubicin was given as a single intraperitoneal (ip) injection at 15 mg/kg of mouse body weight while vehicle control (water) was given at similar volumes (approximately 300 μl volumes of water or 1 mg/ml Doxorubicin solution). The next day, mice were infected with 1×10^9 CFU of Salmonella (either single strain of competitive infections, as described above) or 1×10^9 CFU of E. coli. Tissues were harvested at day 1 post-infection and weight loss, total Salmonella burden, and competitive indices were calculated as above. Total Enterobacteriaceae burden, including E. coli, was assessed by plating tissue lysates on MacConkey agar without antibiotics. Uninfected controls were given 1× PBS via oral gavage instead of bacteria, and Endogenous Enterobacteriaceae burden was assessed by plating tissue lysates on MacConkey agar without antibiotics.

[10] = tested on: Salmonella; assay: Salmonella infection after doxorubicin treatment in mice; assay type: in vivo, Salmonella enterica serovar Typhimurium; conditions: day 1 post-infection
Procedure: Salmonella-induced colitis. Littermate, sex, and age-matched mice were infected using the Salmonella model of colitis^34. Specific pathogen free (SPF) mice were given a single dose of 20 mg streptomycin via oral gavage (100 μl of 200 mg/ml streptomycin dissolved in water) one day prior to infection. Mice were infected with 1×10^7 CFU per mouse resuspended in 1× PBS via oral gavage. For competitive infections, polar deletions containing the chromosomally inserted kanamycin resistance gene were used^56. Mice were infected with 1×10^7 CFU per strain per mouse, for a 2×10^7 CFU per mouse total inoculum in 100 μl. […] The input ratio of each strain was calculated by plating the infective dose on agar plates containing streptomycin (total inoculum) and agar plates containing streptomycin plus kanamycin (mutant strain). WT Salmonella was thus calculated as (total inoculum)−(mutant inoculum) and input ratio was calculated as (WT Salmonella)/(mutant Salmonella inoculum) with a desired input equal to 1. Mouse body weight was measured daily and ‘% body weight’ was calculated as (daily weight)/(day 0 starting weight). […] CFU per gram of tissue were calculated by plating serial dilutions of tissue homogenates on MacConkey agar containing streptomycin and MacConkey agar containing streptomycin and kanamycin. […]

[11] = tested on: E. coli; assay: E. coli infection after doxorubicin treatment in mice; assay type: in vivo; conditions: C57BL/6 mice; data not shown
Procedure: as §4

[12] = tested on: endogenous Enterobacteriaceae; assay: Endogenous Enterobacteriaceae burden in uninfected doxorubicin-treated mice; assay type: in vivo; conditions: uninfected C57BL/6 mice, 2 days post-treatment
Procedure: as §4

[13] = single ip 15 mg/kg, followed by oral infection
[14] = uninfected mice, 2 days post-treatment

Sequence of membrane pannexin-1 channels (Q96RD7 whole entry): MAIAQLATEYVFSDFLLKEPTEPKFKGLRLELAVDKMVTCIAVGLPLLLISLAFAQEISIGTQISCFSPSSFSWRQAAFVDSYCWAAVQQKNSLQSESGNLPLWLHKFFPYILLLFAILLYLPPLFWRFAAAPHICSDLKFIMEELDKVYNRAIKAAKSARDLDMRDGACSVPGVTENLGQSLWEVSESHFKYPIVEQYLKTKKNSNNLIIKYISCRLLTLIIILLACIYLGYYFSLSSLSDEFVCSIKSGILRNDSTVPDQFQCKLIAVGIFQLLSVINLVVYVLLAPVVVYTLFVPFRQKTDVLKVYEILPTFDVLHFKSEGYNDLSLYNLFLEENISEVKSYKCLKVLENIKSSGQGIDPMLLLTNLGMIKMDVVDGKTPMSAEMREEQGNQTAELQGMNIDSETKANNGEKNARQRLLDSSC

Structure (SMILES): C[C@H](Cn1cnc2c(N)ncnc21)OCP(=O)(O)O [Tenofovir]
- membrane pannexin-1 channel inhibition [1]: inhibit membrane pannexin-1 channels

Structure (SMILES): CC(C)[C@H](NC(=O)c1ccc2ccccc2n1)C(=O)N[C@@H](CC(=O)O)C(=O)COc1c(F)cccc1F [QVD]
- Salmonella growth in dying colonocyte supernatant with caspase inhibition ([2]; colonic explants treated with QVD and Stauro together, 30 μM QVD): restricted Salmonella growth to live supernatant control levels
- cell death ([3]; 30 μM QVD, 5 hours post-death induction with B/B dimerizer): reduced cell death
- apoptotic caspase activation ([3]; QVD, data not shown): reduced
- Salmonella growth in CT26:FADD supernatants with caspase inhibition ([4]; CT26:FADD cells treated with QVD, 8 hours aerobic growth): reduced Salmonella growth back to media and live cell supernatant controls

Structure (SMILES): CN[C@@H]1C[C@H]2O[C@@](C)([C@@H]1OC)n1c3ccccc3c3c4c(c5c6ccccc6n2c5c31)C(=O)NC4 [staurosporine, Staurosporine]
- Salmonella growth in apoptotic supernatants compared to live (vehicle-treated) colonocyte supernatants ([2]; C57BL/6 colonic explants, 2 μM Stauro 8 hours ex vivo, CFU after 9 hours aerobic growth): ~10 fold
- Salmonella growth in supernatants of apoptotic CT26 cells compared to control treatments ([4]; 1 μM staurosporine 24 hours, 9 hours aerobic growth): strongly induced Salmonella growth
- Salmonella cadB expression [5]: significantly increased the expression
- Salmonella pflB expression [5]: significantly increased the expression
- pyruvate released compared to live cell supernatants or fresh media controls [6]: significantly higher levels of pyruvate

Structure (SMILES): C=CCc1cccc(/C=N/NC(=O)CN2CCN(Cc3ccccc3)CC2)c1O [Pac-1]
- bacterial growth in supernatants from treated CT26 cells ([4]; 50 μM Pac-1 24 hours, OD600): enhanced bacterial growth

Structure (SMILES): N[C@@H]1[C@H]2CN(c3nc4c(cc3F)c(=O)c(C(=O)O)cn4-c3ccc(F)cc3F)C[C@@H]12 [Trovafloxacin]
- membrane pannexin-1 channel inhibition [1]: membrane pannexin-1 channel inhibitor

Structure (SMILES): COc1cccc2c1C(=O)c1c(O)c3c(c(O)c1C2=O)C[C@@](O)(C(=O)CO)C[C@@H]3O[C@H]1C[C@H](N)[C@H](O)[C@H](C)O1 [doxorubicin]
- Salmonella outgrowth in supernatants of treated colonic explants ([2]; 20 μg/ml Doxo ex vivo, 9 hours aerobic growth): directly enhanced Salmonella outgrowth
- caspase-3 activation [7]: induced caspase-3 activation
- direct action on bacterial growth (CFU) [8]: direct antimicrobial action
- cecal weight [9, 13]: significant reduction in cecal weight
- colon length [9, 13]: shortening of the colon
- caspase-3 activation in the ilea [9, 14]: caspase-3 activation in the ilea
- damage to ceca and colons [9, 14]: sufficient to induce damage to the ceca and colons
- bacterial burden following infection with Salmonella ([10]; C57BL/6 mice): staggering increases in bacterial burden
- WT Salmonella compared to ΔpflB mutant (competitive index) ([10]; control mice after doxorubicin treatment): significantly enriched
- bacterial burden following infection with E. coli [11]: staggering increases in bacterial burden
- endogenous Enterobacteriaceae CFU [12]: potent expansion of the endogenous Enterobacteriaceae

Structure (SMILES): CC(=O)S[C@@H]1CC2=CC(=O)CC[C@]2(C)[C@H]2CC[C@@]3(C)[C@@H](CC[C@@]34CCC(=O)O4)[C@H]12 [spironolactone, Spironolactone]
- membrane pannexin-1 channel inhibition [1]: membrane pannexin-I channel inhibitor

Structure (SMILES): CCCN(CCC)S(=O)(=O)c1ccc(C(=O)O)cc1 [Probenecid]
- membrane pannexin-1 channel inhibition [1]: membrane pannexin-1 channel inhibitor

Reference: patent US20240382506A1, “Means and Methods to Regulate Gut Dysbiosis” (VIB VZW, priority 2021, published 2024)
